In patent publication US10780090B2, “Heteroaryl compounds useful as inhibitors of SUMO activating enzyme” (Millennium Pharmaceuticals, Inc., priority 2014, dated 2020):

Target: recombinant human SAE enzyme (Homo sapiens (Human), UniProt Q9UBT2)
Test: SAE HTRF enzyme assay
Assay type: biochemical
Conditions: for inhibition at 0.111 µM: read-out: Percent Inhibition
Method in brief: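 First, recombinant human SAE (0.11 nM) transfers Sumo-Flag onto Ubc9-GST using 0.5 μM ATP for 105 min at 24° C. Next, EDTA-containing detection buffer with labelled anti-Flag and anti-GST antibodies is added for 2 h. Finally, FRET is quantified and percent inhibition or IC50 derived.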

[1] = SAE inhibition at compound concentration 0.111 μM
[2] = SAE inhibition, class symbols, legend in nM

Sequence of recombinant human SAE enzyme (Q9UBT2 whole entry): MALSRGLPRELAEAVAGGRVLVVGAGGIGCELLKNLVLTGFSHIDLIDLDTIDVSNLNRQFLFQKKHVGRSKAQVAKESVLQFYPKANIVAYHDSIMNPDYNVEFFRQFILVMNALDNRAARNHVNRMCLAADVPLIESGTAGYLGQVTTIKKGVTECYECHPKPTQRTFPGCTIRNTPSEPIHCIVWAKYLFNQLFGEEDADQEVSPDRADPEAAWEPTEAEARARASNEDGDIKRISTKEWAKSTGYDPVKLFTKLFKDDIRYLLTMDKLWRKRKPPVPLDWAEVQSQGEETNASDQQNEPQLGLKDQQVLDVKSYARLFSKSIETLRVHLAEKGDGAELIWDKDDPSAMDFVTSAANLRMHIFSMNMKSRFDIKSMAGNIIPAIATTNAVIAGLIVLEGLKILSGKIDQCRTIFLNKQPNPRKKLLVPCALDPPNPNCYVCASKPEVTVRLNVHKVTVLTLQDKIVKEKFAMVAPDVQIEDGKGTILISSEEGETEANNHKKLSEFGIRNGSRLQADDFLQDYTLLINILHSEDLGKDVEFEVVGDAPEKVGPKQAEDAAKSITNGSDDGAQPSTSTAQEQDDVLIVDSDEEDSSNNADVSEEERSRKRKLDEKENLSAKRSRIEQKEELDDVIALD
Sequence of recombinant human SAE enzyme (Q9UBE0 whole entry partner): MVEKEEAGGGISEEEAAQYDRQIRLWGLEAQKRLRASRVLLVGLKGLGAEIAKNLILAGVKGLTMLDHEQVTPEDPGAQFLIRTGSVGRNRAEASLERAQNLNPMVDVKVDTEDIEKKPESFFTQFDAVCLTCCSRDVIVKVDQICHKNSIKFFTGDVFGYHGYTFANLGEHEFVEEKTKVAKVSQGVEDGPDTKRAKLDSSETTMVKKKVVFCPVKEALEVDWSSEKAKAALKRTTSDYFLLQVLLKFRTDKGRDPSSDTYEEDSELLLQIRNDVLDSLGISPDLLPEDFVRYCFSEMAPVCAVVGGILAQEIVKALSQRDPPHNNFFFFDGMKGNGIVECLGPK

Compound	Percent Inhibition [1] [%]	IC50 [2] [nM]	inhibition at 0.111 µM (Concentration 0.111 μM) [%]	IC50 (class symbols A/B/C) [nM]	Percent Inhibition (Concentration 0.111 μM)
Cc1sc(C(=O)c2cncnc2N[C@@H]2C[C@H](COS(N)(=O)=O)[C@@H](O)C2)nc1C1OCCc2ccc(Cl)cc21 (single isomer, unassigned) [I-300a, [(1R,2S,4R)-4-{[5-({4-[(1R)-7-chloro-3,4-dihydro-1H-isochromen-1-yl]-5-methyl-1,3-thiazol-2-yl}carbonyl)pyrimidin-4-yl]amino}-2-hydroxycyclopentyl]methyl sulfamate or [(1R,2S,4R)-4-{[5-({4-[(1S)-7-chloro-3,4-dihydro-1H-isochromen-1-yl]-5-methyl-1,3-thiazol-2-yl}carbonyl)pyrimidin-4-yl]amino}-2-hydroxycyclopentyl]methyl sulfamate]	26	100 to 1000			
NS(=O)(=O)OC[C@H]1C[C@@H](Nc2ncncc2C(=O)c2cc(CN3CCc4sccc4C3)cs2)C[C@@H]1O [I-168, {(1R,2S,4R)-4-[(5-{[4-(6,7-dihydrothieno[3,2-c]pyridin-5(4H)-ylmethyl)-2-thienyl]carbonyl}pyrimidin-4-yl)amino]-2-hydroxycyclopentyl}methyl sulfamate]			90	10 to 100	
C[C@](O)(c1csc(C(=O)c2cncnc2N[C@@H]2C[C@H](COS(N)(=O)=O)[C@@H](O)[C@H]2O)c1)c1cccc(Br)n1 (mixture of isomers) [I-1, [(1R,2R,3S,4R)-4-{[5-({4-[(1S)-1-(6-bromopyridin-2-yl)-1-hydroxyethyl]-2-thienyl}carbonyl)pyrimidin-4-yl]amino}-2,3-dihydroxycyclopentyl]methyl sulfamate and [(1R,2R,3S,4R)-4-({[5-({4-[(1R)-1-(6-bromopyridin-2-yl)-1-hydroxyethyl]-2-thienyl}carbonyl)pyrimidin-4-yl]amino}-2,3-dihydroxycyclopentyl]methyl sulfamate]				< 10	99
NS(=O)(=O)OC[C@H]1C[C@@H](Nc2ncncc2C(=O)c2cc([C@@H]3OCC(F)(F)c4ccc(Cl)cc43)cs2)C[C@@H]1O (single isomer, unassigned) [I-289b, [(1R,2S,4R)-4-{[5-({4-[(1R)-7-chloro-4,4-difluoro-3,4-dihydro-1H-isochromen-1-yl]-2-thienyl}carbonyl)pyrimidin-4-yl]amino}-2-hydroxycyclopentyl]methyl sulfamate or [(1R,2S,4R)-4-{[5-({4-[(1S)-7-chloro-4,4-difluoro-3,4-dihydro-1H-isochromen-1-yl]-2-thienyl}carbonyl)pyrimidin-4-yl]amino}-2-hydroxycyclopentyl]methyl sulfamate]	99	< 10			
NS(=O)(=O)OC[C@H]1C[C@@H](Nc2ncncc2C(=O)c2cc(Sc3cccc(C(F)(F)F)c3)c(Cl)s2)C[C@@H]1O [I-189, [(1R,2S,4R)-4-({5-[(5-chloro-4-{[3-(trifluoromethyl)phenyl]sulfanyl}-2-thienyl)carbonyl]pyrimidin-4-yl}amino)-2-hydroxycyclopentyl]methyl sulfamate]			78	10 to 100	
NS(=O)(=O)OC[C@H]1C[C@@H](Nc2ncncc2C(=O)c2cc([C@H](O)c3cccc(Cl)n3)c(Cl)s2)C[C@@H]1O (single isomer, unassigned) [I-2b, [(1R,2S,4R)-4-{[5-({5-chloro-4-[(S)-(6-chloropyridin-2-yl)(hydroxy)methyl]-2-thienyl}carbonyl)pyrimidin-4-yl]amino}-2-hydroxycyclopentyl]methyl sulfamate or [(1R,2S,4R)-4-{[5-({5-chloro-4-[(R)-(6-chloropyridin-2-yl)(hydroxy)methyl]-2-thienyl}carbonyl)pyrimidin-4-yl]amino}-2-hydroxycyclopentyl]methyl sulfamate]				10 to 100	61
CCc1ccccc1OCc1csc(C(=O)c2cncnc2N[C@@H]2C[C@H](COS(N)(=O)=O)[C@@H](O)C2)c1 [I-182, [(1R,2S,4R)-4-{[5-({4-[(2-ethylphenoxy)methyl]-2-thienyl}carbonyl)pyrimidin-4-yl]amino}-2-hydroxycyclopentyl]methyl sulfamate]			82	10 to 100	
Cc1sc(C(=O)c2cncnc2N[C@@H]2C[C@H](COS(N)(=O)=O)[C@@H](O)C2)cc1[C@@H]1OCCn2cc(C(F)(F)F)nc21 (mixture of isomers) [I-337, [(1R,2S,4R)-2-hydroxy-4-{[5-({5-methyl-4-[(8S)-2-(trifluoromethyl)-5,6-dihydro-8H-imidazo[2,1-c][1,4]oxazin-8-yl]-2-thienyl}carbonyl)pyrimidin-4-yl]amino}cyclopentyl]methyl sulfamate and [(1R,2S,4R)-2-hydroxy-4-{[5-({5-methyl-4-[(8R)-2-(trifluoromethyl)-5,6-dihydro-8H-imidazo[2,1-c][1,4]oxazin-8-yl]-2-thienyl}carbonyl)pyrimidin-4-yl]amino}cyclopentyl]methyl sulfamate]	89	10 to 100			
CC(c1cccc(Cl)c1)c1csc(C(=O)c2cncnc2N[C@@H]2C[C@H](COS(N)(=O)=O)[C@@H](O)C2)c1 (single isomer, unassigned) [I-117b, [(1R,2S,4R)-4-{[5-({4-[(1S)-1-(3-chlorophenyl)ethyl]-2-thienyl}carbonyl)pyrimidin-4-yl]amino}-2-hydroxycyclopentyl]methyl sulfamate or [(1R,2S,4R)-4-{[5-({4-[(1R)-1-(3-chlorophenyl)ethyl]-2-thienyl}carbonyl)pyrimidin-4-yl]amino}-2-hydroxycyclopentyl]methyl sulfamate]				< 10	97
NS(=O)(=O)OC[C@H]1C[C@@H](Nc2ncncc2C(=O)c2cc([C@@H]3OCCc4ccccc43)cs2)C[C@@H]1O (single isomer, unassigned) [I-254b, [(1R,2S,4R)-4-{[5-({4-[(1R)-3,4-dihydro-1H-isochromen-1-yl]-2-thienyl}carbonyl)pyrimidin-4-yl]amino}-2-hydroxycyclopentyl]methyl sulfamate or [(1R,2S,4R)-4-{[5-({4-[(S)-3,4-dihydro-1H-isochromen-1-yl]-2-thienyl}carbonyl)pyrimidin-4-yl]amino}-2-hydroxycyclopentyl]methyl sulfamate]				< 10	99
NS(=O)(=O)OC[C@H]1C[C@@H](Nc2ncncc2C(=O)c2cc([C@@H]3NCCc4ccc(Br)cc43)c(Cl)s2)[C@H](O)[C@@H]1O (single isomer, unassigned) [I-259b, [(1R,2R,3S,4R)-4-{[5-({4-[(1R)-7-bromo-1,2,3,4-tetrahydroisoquinolin-1-yl]-5-chloro-2-thienyl}carbonyl)pyrimidin-4-yl]amino}-2,3-dihydroxycyclopentyl]methyl sulfamate or [(1R,2R,3S,4R)-4-{[5-({4-[(1S)-7-bromo-1,2,3,4-tetrahydroisoquinolin-1-yl]-5-chloro-2-thienyl}carbonyl)pyrimidin-4-yl]amino}-2,3-dihydroxycyclopentyl]methyl sulfamate]				< 10	97
Cc1ccc2c(n1)C(c1cc(C(=O)c3cncnc3N[C@@H]3C[C@H](COS(N)(=O)=O)[C@@H](O)C3)sc1C)OCC2 (single isomer, unassigned) [I-291b, [(1R,2S,4R)-2-hydroxy-4-{[5-({5-methyl-4-[(8S)-2-methyl-5,8-dihydro-6H-pyrano[3,4-b]pyridin-8-yl]-2-thienyl}carbonyl)pyrimidin-4-yl]amino}cyclopentyl]methyl sulfamate or [(1R,2S,4R)-2-hydroxy-4-{[5-({5-methyl-4-[(8R)-2-methyl-5,8-dihydro-6H-pyrano[3,4-b]pyridin-8-yl]-2-thienyl}carbonyl)pyrimidin-4-yl]amino}cyclopentyl]methyl sulfamate]	99	< 10			
NS(=O)(=O)OC[C@H]1C[C@@H](Nc2ncncc2C(=O)c2cc(C3(c4cccc(Cl)c4)CCCO3)cs2)C[C@@H]1O (single isomer, unassigned) [I-20b, [(1R,2S,4R)-4-{[5-({4-[(2S)-2-(3-chlorophenyl)tetrahydrofuran-2-yl]-2-thienyl}carbonyl)pyrimidin-4-yl]amino}-2-hydroxycyclopentyl]methyl sulfamate or [(1R,2S,4R)-4-{[5-({4-[(2R)-2-(3-chlorophenyl)tetrahydrofuran-2-yl]-2-thienyl}carbonyl)pyrimidin-4-yl]amino}-2-hydroxycyclopentyl]methyl sulfamate]				< 10	99
Cc1sc(C(=O)c2cncnc2N[C@@H]2C[C@H](COS(N)(=O)=O)[C@@H](O)C2)cc1[C@@H]1OCCc2cccnc21 (mixture of isomers) [I-285, [(1R,2S,4R)-4-{[5-({4-[(8S)-5,8-dihydro-6H-pyrano[3,4-b]pyridin-8-yl]-5-methyl-2-thienyl}carbonyl)pyrimidin-4-yl]amino}-2-hydroxycyclopentyl]methyl sulfamate and [(1R,2S,4R)-4-{[5-({4-[(8R)-5,8-dihydro-6H-pyrano[3,4-b]pyridin-8-yl]-5-methyl-2-thienyl}carbonyl)pyrimidin-4-yl]amino}-2-hydroxycyclopentyl]methyl sulfamate]	100	< 10			
NS(=O)(=O)OC[C@H]1C[C@@H](Nc2ncncc2C(=O)c2cc([C@@H]3NCCc4ccc(Br)cc43)c(Cl)s2)C[C@@H]1O (single isomer, unassigned) [I-251b, [(1R,2S,4R)-4-{[5-({4-[(1R)-7-bromo-1,2,3,4-tetrahydroisoquinolin-1-yl]-5-chloro-2-thienyl}carbonyl)pyrimidin-4-yl]amino}-2-hydroxycyclopentyl]methyl sulfamate or [(1R,2S,4R)-4-{[5-({4-[(1S)-7-bromo-1,2,3,4-tetrahydroisoquinolin-1-yl]-5-chloro-2-thienyl}carbonyl)pyrimidin-4-yl]amino}-2-hydroxycyclopentyl]methyl sulfamate]				< 10	97
